± gives the expanded uncertainty stated by the source.
Assay: mn = molality of the nth substance listed, in mol/kg
Conditions: 101 kPa, Liquid, Vibrating tube method

OCC1CCCCN1 (centres undefined) [2-(hydroxymethyl)piperidine] + O
mass density [kg/m3]
Conditions | m1 = 0.0476 | m1 = 0.0676 | m1 = 0.0864 | m1 = 0.1214 | m1 = 0.1524 | m1 = 0.1766 | m1 = 0.2009 | m1 = 0.2264 | m1 = 0.2609
293.15 K | 998.6 ± 0.2 | 998.75 ± 0.2 | 998.87 ± 0.2 | 999.15 ± 0.2 | 999.37 ± 0.2 | 999.52 ± 0.2 | 999.71 ± 0.2 | 999.87 ± 0.2 | 1000.11 ± 0.2
298.15 K | 997.46 ± 0.2 | 997.6 ± 0.2 | 997.72 ± 0.2 | 997.99 ± 0.2 | 998.2 ± 0.2 | 998.34 ± 0.2 | 998.53 ± 0.2 | 998.68 ± 0.2 | 998.91 ± 0.2
303.15 K | 996.06 ± 0.2 | 996.19 ± 0.2 | 996.31 ± 0.2 | 996.57 ± 0.2 | 996.77 ± 0.2 | 996.91 ± 0.2 | 997.09 ± 0.2 | 997.24 ± 0.2 | 997.46 ± 0.2
308.15 K | 994.44 ± 0.2 | 994.56 ± 0.2 | 994.68 ± 0.2 | 994.93 ± 0.2 | 995.13 ± 0.2 | 995.26 ± 0.2 | 995.43 ± 0.2 | 995.58 ± 0.2 | 995.79 ± 0.2
313.15 K | 992.59 ± 0.2 | 992.74 ± 0.2 | 992.85 ± 0.2 | 993.1 ± 0.2 | 993.28 ± 0.2 | 993.41 ± 0.2 | 993.58 ± 0.2 | 993.72 ± 0.2 | 993.92 ± 0.2
318.15 K | 990.6 ± 0.2 | 990.72 ± 0.2 | 990.83 ± 0.2 | 991.07 ± 0.2 | 991.25 ± 0.2 | 991.37 ± 0.2 | 991.53 ± 0.2 | 991.66 ± 0.2 | 991.86 ± 0.2

— the NIST ThermoML archive (doi:10.1016/j.fluid.2012.10.024)
